# Tested on: 857933-349-R-J2-PDC complex spheroids, viability
# Experiment: Anticancer human tumor 857933-349-R-J2-PDC patient-derived colon adenocarcinoma cell line growth inhibition [GQUAD]
# Conditions: for IC50: curve of first compound; for viability, T/C: stronger effect = lower value
# From the text: DNA G-quadruplex Stabilizer Agents in Combinations in Complex Spheroids
# A high-throughput screen of multi-cell type tumor spheroids was designed to identify active combinations of DNA G-quadruplex stabilizer agents and targeted small molecules. Complex spheroids include a stromal component modeled by human endothelial cells (HUVEC) and fibroblasts modeled by human mesenchymal stem cells (MSCs). The concentration ranges selected for each drug and investigational agent were based upon clinically achievable concentrations if the clinical Cmax of the agent was known.
# Compounds. The drugs and investigational agents: pidnarulex (CX-5461; NSC782164), APTO-253 (NSC789042), BRACO-19 (NSC847499), peposertib (NSC802822), ceralasertib (NSC780249), elimusertib (NSC800525), camonsertib (NSC841442), AZD-1390 (NSC803789), olaparib (NSC753686), talazoparib (NSC767125), ART-558 (NSC835418), sotorasib (NSC818433), MRTX-1133 (NSC836407), SN-38 (NSC673596), topotecan (NSC609699), etoposide (NSC141540), doxorubicin (NSC123127), gemcitabine (NSC613327), 5-fluorouracil (NSC19893), paclitaxel (NSC125973), vemurafenib (NSC761431), panobinostat (NSC761190), R-306465 (JNJ-16241199; NSC773264), adavosertib (NSC754352), TP-3654 (NSC805149), carboplatin (NSC241240), KSQ-4279 (NSC840948), and staurosporine (NSC755774) were obtained from the National Cancer Institute (NCI) Developmental Therapeutics Program Chemical Repository (34). The FDA-approved anticancer drug set is available from the NCI Developmental Therapeutics Program. […] The stock solutions were prepared in dimethyl sulfoxide (DMSO, Sigma-Aldrich, St. Louis, MO, cat. D2650) at 800-fold the tested concentration and stored at -70 degrees C prior to their use. All drugs and investigational agents were tested over a range starting from a high concentration at or near the clinical Cmax and decreasing in half-log increments. If the clinical Cmax for an agent had not been determined, the highest concentration tested was 10 microM.
# 2.3 Cell Culture. All cells were maintained in an incubator at 37 degrees C and 5% CO2 with 95% humidity. The PDC lines were cultured according to standard operating procedures established by the NCI PDMR. All PDCs were thawed and cultured in Matrigel-coated flasks prepared with a working solution of 1X Ham's F-12 nutrient mix, without supplementation (Invitrogen, cat. 11765054), 100 U/mL penicillin-streptomycin (Invitrogen, cat. 15140122), and 2.5% Matrigel (Corning Inc., cat. 354248) for the first three passages. The 857933-349-R-J2-PDC line was cultured in 6C/Colon 1B media, which includes advanced DMEM/F-12 (Thermo Fisher Scientific, cat. 12634028), 10 mM HEPES (Thermo Fisher Scientific, cat. 15630080), 1X GlutaMAX supplement (Thermo Fisher Scientific, cat. 35050061), 0.1 mg/mL primocin (InvivoGen, cat. ant-pm-2), 10% defined fetal bovine serum, heat inactivated (HyClone Laboratories Inc., cat. SH30070.03HI), 50% L-WRN conditioned media (ATCC, cat. CRL-3276), 1.25 mM N-Acetyl-L-cysteine (Sigma-Aldrich, cat. A9165), 10 mM nicotinamide (Sigma-Aldrich, cat. N0636), 1X B-27 supplement (Thermo Fisher Scientific, cat. 17504044), 1X N-2 supplement (Thermo Fisher Scientific, cat. 17502048), 10 microM Y-27632 dihydrochloride (Tocris Bioscience, cat. 1254), and 50 ng/mL human EGF recombinant protein (Thermo Fisher Scientific, cat. PHG0311). The 485176-168-R4-J1-PDC line was cultured in Panc media, which includes all 6C/Colon 1B media components plus 100 ng/mL human FGF-10 (Thermo Fisher Scientific, cat. 100-26), 500 nM SB-431542 (Selleckchem, cat. S1067), and gastrin (Tocris, cat. 3006).
# […]
# [1] = second compound 0.0316 µM, first compound 0.0316 µM
# [2] = second compound 0.0316 µM, first compound 0.1 µM
# [3] = second compound 0.0316 µM, first compound 0.316 µM
# [4] = second compound 0.0316 µM, first compound 1 µM
# [5] = second compound 0.0316 µM, first compound 3.16 µM
# [6] = second compound 0.0316 µM, first compound 10 µM
# [7] = second compound 0.1 µM, first compound 0.0316 µM
# [8] = second compound 0.1 µM, first compound 0.1 µM
# [9] = second compound 0.1 µM, first compound 0.316 µM
# [10] = second compound 0.1 µM, first compound 1 µM
# [11] = second compound 0.1 µM, first compound 3.16 µM
# [12] = second compound 0.1 µM, first compound 10 µM
# [13] = second compound 0.316 µM, first compound 0.0316 µM
# [14] = second compound 0.316 µM, first compound 0.1 µM
# [15] = second compound 0.316 µM, first compound 0.316 µM
# [16] = second compound 0.316 µM, first compound 1 µM
# [17] = second compound 0.316 µM, first compound 3.16 µM
# [18] = second compound 0.316 µM, first compound 10 µM
# [19] = second compound 1 µM, first compound 0.0316 µM
# [20] = second compound 1 µM, first compound 0.1 µM
# [21] = second compound 1 µM, first compound 0.316 µM
# [22] = second compound 1 µM, first compound 1 µM
# [23] = second compound 1 µM, first compound 3.16 µM
# [24] = second compound 1 µM, first compound 10 µM
# [25] = second compound 3.16 µM, first compound 0.0316 µM
# [26] = second compound 3.16 µM, first compound 0.1 µM
# [27] = second compound 3.16 µM, first compound 0.316 µM
# [28] = second compound 3.16 µM, first compound 1 µM
# [29] = second compound 3.16 µM, first compound 3.16 µM
# [30] = second compound 3.16 µM, first compound 10 µM
# [31] = second compound 10 µM, first compound 0.0316 µM
# [32] = second compound 10 µM, first compound 0.1 µM
# [33] = second compound 10 µM, first compound 0.316 µM
# [34] = second compound 10 µM, first compound 1 µM
# [35] = second compound 10 µM, first compound 3.16 µM
# [36] = second compound 10 µM, first compound 10 µM
# 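Note: spheroids exposed to compounds for one week before readout.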
# 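Throughout, for viability, T/C: percent viability relative to vehicle DMSO wells taken as 100%.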
smiles,measurement,setting,value
CC(=O)O[C@H]1C(=O)[C@@]2(C)[C@H]([C@H](OC(=O)c3ccccc3)[C@]3(O)C[C@H](OC(=O)[C@H](O)[C@@H](NC(=O)c4ccccc4)c4ccccc4)C(C)=C1C3(C)C)[C@]1(OC(C)=O)CO[C@@H]1C[C@@H]2O + Cc1[nH]c2ccc(F)cc2c1-c1nc2c3cccnc3c3ncccc3c2[nH]1,IC50,second compound 0.0316 µM,< 31.6 nM
same,IC50,second compound 0.1 µM,< 31.6 nM
same,IC50,second compound 0.316 µM,41.3 nM
same,IC50,second compound 1 µM,32.9 nM
same,IC50,second compound 3.16 µM,39.5 nM
same,IC50,second compound 10 µM,< 31.6 nM
same,"viability, T/C",[1],43.9%
same,"viability, T/C",[2],16.9%
same,"viability, T/C",[3],11.6%
same,"viability, T/C",[4],11.4%
same,"viability, T/C",[5],11.1%
same,"viability, T/C",[6],12.6%
same,"viability, T/C",[7],44.9%
same,"viability, T/C",[8],17.1%
same,"viability, T/C",[9],11.4%
same,"viability, T/C",[10],11.8%
same,"viability, T/C",[11],12.7%
same,"viability, T/C",[12],13.1%
same,"viability, T/C",[13],59.8%
same,"viability, T/C",[14],17.8%
same,"viability, T/C",[15],10.8%
same,"viability, T/C",[16],11%
same,"viability, T/C",[17],12.8%
same,"viability, T/C",[18],13.5%
same,"viability, T/C",[19],51.2%
same,"viability, T/C",[20],17.7%
same,"viability, T/C",[21],11.8%
same,"viability, T/C",[22],12.3%
same,"viability, T/C",[23],14.2%
same,"viability, T/C",[24],12.4%
same,"viability, T/C",[25],58%
same,"viability, T/C",[26],16.6%
same,"viability, T/C",[27],14.5%
same,"viability, T/C",[28],12.8%
same,"viability, T/C",[29],15%
same,"viability, T/C",[30],16.4%
same,"viability, T/C",[31],43.2%
same,"viability, T/C",[32],17.1%
same,"viability, T/C",[33],14%
same,"viability, T/C",[34],13.3%
same,"viability, T/C",[35],16.7%
same,"viability, T/C",[36],16.2%
Nc1ccn(C2OC(CO)C(O)C2(F)F)c(=O)n1 (stereo unspecified) + Cc1[nH]c2ccc(F)cc2c1-c1nc2c3cccnc3c3ncccc3c2[nH]1,IC50,second compound 0.0316 µM,337 nM
same,IC50,second compound 0.1 µM,153 nM
same,IC50,second compound 0.316 µM,339 nM
same,IC50,second compound 1 µM,169 nM
same,IC50,second compound 3.16 µM,270 nM
same,IC50,second compound 10 µM,255 nM
same,"viability, T/C",[1],73.6%
same,"viability, T/C",[2],50.7%
same,"viability, T/C",[3],53%
same,"viability, T/C",[4],12.2%
same,"viability, T/C",[5],8.63%
same,"viability, T/C",[6],7.04%
same,"viability, T/C",[7],81.9%
same,"viability, T/C",[8],55.6%
same,"viability, T/C",[9],40.1%
same,"viability, T/C",[10],13.4%
same,"viability, T/C",[11],8.84%
same,"viability, T/C",[12],6.64%
same,"viability, T/C",[13],71.9%
same,"viability, T/C",[14],54.7%
same,"viability, T/C",[15],53.2%
same,"viability, T/C",[16],12%
same,"viability, T/C",[17],7.77%
same,"viability, T/C",[18],6.81%
same,"viability, T/C",[19],76.5%
same,"viability, T/C",[20],54.2%
same,"viability, T/C",[21],45.2%
same,"viability, T/C",[22],10.6%
same,"viability, T/C",[23],8.22%
same,"viability, T/C",[24],6.71%
same,"viability, T/C",[25],74.5%
same,"viability, T/C",[26],53.2%
same,"viability, T/C",[27],50.2%
same,"viability, T/C",[28],11.6%
same,"viability, T/C",[29],8.23%
same,"viability, T/C",[30],7.07%
same,"viability, T/C",[31],73%
same,"viability, T/C",[32],47.9%
same,"viability, T/C",[33],48.8%
same,"viability, T/C",[34],10.1%
same,"viability, T/C",[35],7.69%
same,"viability, T/C",[36],8.66%
CC1COCCN1c1cc(-c2ccnn2C)c2ccnc(-c3ccn[nH]3)c2n1 (stereo unspecified) + Cc1cnc(CNC(=O)c2c(=O)c3ccc(N4CCCN(C)CC4)nc3n3c2sc2ccccc23)cn1,IC50,second compound 0.0316 µM,< 31.6 nM
same,IC50,second compound 0.1 µM,< 31.6 nM
same,IC50,second compound 0.316 µM,< 31.6 nM
same,IC50,second compound 1 µM,< 31.6 nM
same,IC50,second compound 3.16 µM,< 31.6 nM
same,IC50,second compound 10 µM,< 31.6 nM
same,"viability, T/C",[1],49.6%
same,"viability, T/C",[2],33.7%
same,"viability, T/C",[3],33.5%
same,"viability, T/C",[4],31.8%
same,"viability, T/C",[5],38.3%
same,"viability, T/C",[6],41.4%
same,"viability, T/C",[7],30.5%
same,"viability, T/C",[8],25.8%
same,"viability, T/C",[9],18.4%
same,"viability, T/C",[10],23.6%
same,"viability, T/C",[11],31%
same,"viability, T/C",[12],32.4%
same,"viability, T/C",[13],12.3%
same,"viability, T/C",[14],6.9%
same,"viability, T/C",[15],5.16%
same,"viability, T/C",[16],5.25%
same,"viability, T/C",[17],9.22%
same,"viability, T/C",[18],16%
same,"viability, T/C",[19],2.71%
same,"viability, T/C",[20],2.88%
same,"viability, T/C",[21],2.86%
same,"viability, T/C",[22],2.6%
same,"viability, T/C",[23],4.59%
same,"viability, T/C",[24],8.81%
same,"viability, T/C",[25],2.08%
same,"viability, T/C",[26],3.98%
same,"viability, T/C",[27],2.01%
same,"viability, T/C",[28],1.59%
same,"viability, T/C",[29],2.42%
same,"viability, T/C",[30],5%
same,"viability, T/C",[31],1.03%
same,"viability, T/C",[32],0.7%
same,"viability, T/C",[33],0.73%
same,"viability, T/C",[34],0.54%
same,"viability, T/C",[35],1.7%
same,"viability, T/C",[36],2.18%
